This is an account of results in patent US20230084978A1, “OPTIMIZATION OF PEPTIDE-MELANIN BINDING” (ASSITANCE PUBLIQUE - HÔPITAUX DE PARIS, priority 2020, published 2023).

Non-standard residues stand in square brackets, D forms with d. No end group written: not given here. Hyp = O=C(O)[C@@H]1C[C@@H](O)CN1

Assay [1] relates to humanized female HLADRB1* 0101/HLA-A*0201 (HHD DR1) mice. Briefly: CTL response (IFNg-SFCs of re-stimulated splenocytes) after subcutaneous immunization in humanized mice. It is filed as in vivo. The conditions noted are these: 10 μg/mouse subcutaneous, day 8, more than 10 spots is positive. The protocol: CTL response was evaluated after subcutaneous immunizations in humanized female HLADRB1* 0101/HLA-A*0201 (HHD DR1) mice.
L-Dopa (0.8 mg/ml) underwent an oxidative polymerization at pH 8.5 in aerobic conditions for 2 hours at 60° C. The reaction mixture was then filtered on a 10 kDa filter, and the retentate containing the synthetic melanin was resuspended at pH 7.5 in phosphate buffer.
Peptides (A10, SEQ ID NO: 29; A8, SEQ ID NO: 34; A30, SEQ ID NO: 31, 10 μg/mouse) were then added (at the weight ratio peptide/L-Dopa=1/4).
Mixtures (either Mel+peptides or Peptides alone) were rapidly (<1 hour) used for subcutaneous immunizations in mice. Phosphorothioate oligonucleotide CpG-28 (5′-[…], SEQ ID NO: 21) was added to vaccine formulations (10 μg/mouse) just before the immunizations. Mice were sacrificed on day 8 and the CTL response was performed as described in Carpentier; 2017. Briefly, splenocytes were re-stimulated in vitro with the corresponding peptide (non-conjugated to melanin) and the numbers of IFNg-SFCs (Spot forming cells) were measured and expressed as Mean+/−S.E.M. (n=4 to 8 mice/group). More than 10 spots is considered as a positive immune response

Assay [2] can be described thus: Binding of peptides to synthetic melanin (Tricine-SDS-PAGE analysis). The note with it: for Binding of peptides on synthetic melanin, Mel + peptide: L-Dopa polymerized first, peptide added (1/4), 2 hours at room temperature; for Binding of peptides on synthetic melanin, Mel + peptide 2 hours at pH 7.4: filtered (10 kDa) preformed melanin; for Binding of peptides on synthetic melanin, Mel + peptide 2 hours at pH 7.4 / Binding of peptides on synthetic melanin, Mel + peptide 18 hours at pH 7.4 / Binding of peptides on synthetic melanin, Mel + peptide 18 hours at pH 8.5 / Binding of peptides on synthetic melanin, Mel + peptide 10 minutes / Binding of peptides on synthetic melanin, Mel + peptide 2 hours / Binding of peptides on synthetic melanin, Mel + peptide 18 hours: peptide/L-Dopa 1/4; for Binding of peptides on synthetic melanin, Mel + peptide 18 hours at pH 7.4 / Binding of peptides on synthetic melanin, Mel + peptide 18 hours at pH 8.5: filtered preformed melanin; for Binding of peptides on synthetic melanin, Peptide-Mel: peptide/L-Dopa 1/4 mixed; for Binding of peptides on synthetic melanin, Peptide-Mel / Percentage of peptide binding to melanin, Peptide-Mel: then 2 hours at pH 8.5 and 60° C.; for Percentage of peptide binding to melanin, Mel + peptide: L-Dopa polymerized 2 h at pH 8.5 and 60° C. before the peptide was added; for binding of the peptides to melanin (in words), SDS-page analysis: antigen added just after L-Dopa is polymerized in melanin; for Percentage of peptide binding to melanin, Peptide-Mel: peptide mixed with L-Dopa (1/4 gp100, 1/6 EphA2); for Binding of peptides on synthetic melanin, Mel + peptide 10 minutes / Binding of peptides on synthetic melanin, Mel + peptide 2 hours / Binding of peptides on synthetic melanin, Mel + peptide 18 hours: filtered preformed melanin at pH 7.5. From the text: The binding of the peptide to the melanin can be verified by Tricine-SDS-PAGE analysis as described in Carpentier; 2017 (op. cit.). Briefly, samples (peptide-Mel or peptide alone) are loaded on acrylamide gels. Following electrophoresis, the gels are stained with Coomassie Brilliant Blue R-250, allowing the quantification of the free peptide in the gel. The binding of peptides to melanin can be expressed as the ratio: [amount of unbound peptide in samples Peptide-Mel/amount of peptides in control samples containing peptides alone.
Peptides were mixed with L-Dopa (weight ratio peptide/L-Dopa=1/4 and 1/6 for gp100 and EphA2, respectively) then incubated for 2 hours at pH 8.5 and 60° C. under agitation to ensure oxygenation of the solution to generate nanoparticles of melanin-bound peptides (Peptide-Mel). Alternatively, L-Dopa alone (0.8 mg/ml) was polymerized into melanin for 2 h at pH 8.5 and 60° C. under agitation, before the peptides (weight ratio peptide/L-Dopa=1/4 and 1/6 for gp100 and EphA2, respectively) were added to the solution (Mel+peptide). Tricine-SDS-PAGE analysis was performed as described in Carpentier; 2017 (op. cit.). Briefly, samples (peptide-Mel or peptide alone) were loaded on acrylamide gels. Following electrophoresis, the gels were stained with Coomassie Brilliant Blue R-250 and imaged with the ChemiDoc XRS+ system (Bio-Rad Laboratory), allowing the quantification of the free peptide in the gel. The binding of peptides to melanin was expressed as the ratio: [amount of unbound peptide in samples Peptide-Mel/amount of peptides in control samples containing peptides alone]
First column (Peptide-Mel): L-Dopa (0.8 mg/ml) was mixed with peptides (weight ratio peptide/L-Dopa=1/4) then incubated for 2 hours at pH 8.5 and 60° C. to generate nanoparticles of melanin-bound peptides. Alternatively (second column; Mel+peptide), L-Dopa alone (0.8 mg/ml) was first polymerized into melanin for 2 h at pH 8.5 and 60° C. under vigorous agitation, before the peptides (weight ratio peptide/L-Dopa=1/4) were added to the solution and incubated for 2 hours at room temperature. In both cases, the percentage of peptides that bound to melanin was then quantified with SPS-page analysis, as described in table 1. (ND=not done)
L-Dopa (0.8 mg/ml) underwent an oxidative polymerization at pH 8.5 in aerobic conditions for 2 hours at 60° C. The reaction mixture was then filtered on a 10 kDa filter, and the retentate containing the synthetic melanin was resuspended at pH 7.5 in phosphate buffer. Peptides were then added (at the weight ratio peptide/L-Dopa=1/4) and the mixture was incubated for various periods of time and or pH. The percentage of peptides that bound to melanin was then quantified with SPS-page analysis, as described in table 1. (ND=not done).
L-Dopa (0.8 mg/ml) underwent an oxidative polymerization at pH 8.5 and 60° C. for 2 hours. The reaction mixture was then filtered on a 10 kDa filter, and the retentate containing the synthetic melanin was resuspended at pH 7.5 in phosphate buffer. Peptides were then added (at the weight ratio peptide/L-Dopa=1/4) and the mixture was incubated for various periods of time. Binding of the peptides was then quantified with SPS-page analysis, as described in table 1. (ND=not done)

In the next assay the test system is C57BL/6 mice. Briefly: CTL response (IFNg-SFCs of re-stimulated splenocytes) after subcutaneous immunization. In kind it is in vivo. The conditions noted are these: antigen added just after polymerization (Mel+peptide) + CpG-28, subcutaneous, 10 μg/mouse, day 8. The protocol: FIG. 1: CTL response after subcutaneous immunizations in 5-weeks old, C57BL/6, mice. Peptides (10 μg/mouse) were mixed with L-Dopa (weight ratio peptide/L-Dopa=1/4 and 1/6 for gp100 and EphA2 respectively) and incubated under the above described conditions (see table 1). Phosphorothioate oligonucleotide CpG-28 (5′-[…], SEQ ID NO: 21), were added to vaccine formulations (10 μg/mouse) just before the immunizations. Mice were then immunized sub-cutaneously with gp100-Mel+CpG (“gp100-Mel”), or with previously synthesized melanin mixed with gp100 and CpG (“Mel+gp100”); EphA2-Mel+CpG (“EphA2-Mel”), melanin+EphA2+CpG (“Mel+EphA2”). Mice were sacrificed on day 8 and the CTL response was performed as described in Carpentier; 2017. Briefly, splenocytes were re-stimulated in vitro with the corresponding MHC class 1-epitope (non-conjugated to melanin) and the numbers of IFNg-SFCs (Spot forming cells) were measured and expressed as Mean+/−S.E.M. (n=8 mice/group with pooled data from 2 different experiments of 4 mice each. Student-T test: gp100-Mel vs Mel+gp100: p<0.001; EphA2-Mel vs Mel+EphA2: p<0.001)
FIG. 2: CTL response after subcutaneous immunizations in C57BL/6 mice. […]

On to “CKSVWSKLQSIGIRQH (Modified UCP2 Peptide) [A10]”, for which the “numbers of IFNg-SFCs (Spot forming cells), Mean” value (shortened to “numbers of IFNg-SFCs”) is recorded as 150 in assay [1] (Mel + pept + CpG-28) and 18 in assay [1] (Pept + CpG-28).

With “CKVFAGIPTV (Modified PTPRZ1 Epitope) [A30]”, the “numbers of IFNg-SFCs” value in assay [1] (Mel + pept + CpG-28) amounted to 182.

As for “Acetyl-R C SIYRYYGL (Ac-RCSIYRYYGL) [SEQ ID NO: 8]”, in assay [2], the “Binding of peptides on synthetic melanin, Mel + peptide” value worked out at 53%; the “Binding of peptides on synthetic melanin, Mel + peptide 2 hours at pH 7.4” value (“Binding … Mel + peptide 2 hours at pH 7.4” below) is reported as 53%; the “Binding of peptides on synthetic melanin, Mel + peptide 18 hours at pH 7.4” value is 46%; the “Binding of peptides on synthetic melanin, Mel + peptide 18 hours at pH 8.5” value came out at 42%. For the same substance, the “Binding of peptides on synthetic melanin, Peptide-Mel” value (“Binding of peptides … Peptide-Mel” for short) in assay [2] stood at 74%.

As for “Acetyl-R T SIYRYYGL (Ac-RTSIYRYYGL) [SEQ ID NO: 12]”, in assay [2], the “Binding of peptides on synthetic melanin, Mel + peptide” value was found to be 0%; the “Binding … Mel + peptide 2 hours at pH 7.4” value amounted to 0%; the “Binding of peptides … Peptide-Mel” value was 10%.

For “FSHHNIIRL (EphA2 peptide) [SEQ ID NO: 2, reference compound]”, in assay [2], the “Percentage of peptide binding to melanin, Mel + peptide” value was 9 +/− 6%; the “binding of the peptides to melanin (in words), SDS-page analysis” value is “minimal binding”; the “Percentage of peptide binding to melanin, Peptide-Mel” value is recorded as 93 +/− 12%. The “ability of the vaccine formulation to trigger a CTL (CD8) response” value with C57BL/6 mice was “lost”.

With “CKVFAGIPTVASDTV (Modified PTPRZ1 Epitope) [A8]”, the “numbers of IFNg-SFCs” value in assay [1] (Mel + pept + CpG-28) was 29; in assay [1] (Pept + CpG-28), 5.

Take “KVPRNQDWL (gp100 peptide) [SEQ ID NO: 1, reference compound]”: in assay [2], the “Percentage of peptide binding to melanin, Mel + peptide” value was 23 +/− 8%; the “binding of the peptides to melanin (in words), SDS-page analysis” value is “minimal binding”; the “Binding of peptides on synthetic melanin, Mel + peptide 10 minutes” value is listed as 6%; the “Binding of peptides on synthetic melanin, Mel + peptide 2 hours” value stood at 22%. In assay [2], the “Binding of peptides on synthetic melanin, Mel + peptide 18 hours” value stood at 89% and the “Percentage of peptide binding to melanin, Peptide-Mel” value is 100 +/− 0%. In addition, the “ability of the vaccine formulation to trigger a CTL (CD8) response” value with C57BL/6 mice was “lost”.

As for “M KVPRNQDWL (MKVPRNQDWL; Modified gp100 peptide) [SEQ ID NO: 18]”, in assay [2], the “Binding of peptides on synthetic melanin, Mel + peptide 10 minutes” value is listed as 7%; the “Binding of peptides on synthetic melanin, Mel + peptide 2 hours” value came to 43%; the “Binding of peptides on synthetic melanin, Mel + peptide 18 hours” value was found to be 100%.

For “HydroxyP SIYRYYGL ([Hyp]SIYRYYGL) [SEQ ID NO: 6]”, in assay [2], the “Binding of peptides on synthetic melanin, Mel + peptide” value amounted to 23%; the “Binding … Mel + peptide 2 hours at pH 7.4” value is listed as 23%; the “Binding of peptides on synthetic melanin, Mel + peptide 18 hours at pH 7.4” value is listed as 39%; the “Binding of peptides on synthetic melanin, Mel + peptide 18 hours at pH 8.5” value is on record as 74%. In addition, in assay [2], the “Binding of peptides … Peptide-Mel” value was 95%.
